Source: patent US20170341980A1, “NOBLE GAS NEUROPROTECTION AND NEUROREGENERATION FROM TREATMENT RELATED NEUROTOXICITY” (NOBLIS THERAPEUTICS, INC., priority 2016, published 2017)

Tests used:
[1] = system: tumor growth; test: Clinical trial: tumor growth in brain metastasis patients receiving xenon versus air controls; assay type: in vivo, human; settings: patients receiving xenon as compared to air controls
Method: (§1) A clinical trial is conducted in 20 patients with brain metastasis who receive 2 Gy to 100 Gy fractionated over 2-8 weeks. 10 patients are treated with 10-20 liters of 30% xenon every other day during radiation exposure. An additional 10 patients are treated with similar radiation regimen and administered 10-20 liters of air every other day during radiation exposure. […] Furthermore, verbal memory, as measured by the Hopkins Verbal Learning Test-Revised (HVLT-R), Cognitive flexibility as measured with the Controlled Oral Word Association (COWA), Word Fluency has measured with the Controlled Oral Word Association (COWA), Working memory has measured with the Wechsler Adult Intelligence Scale—Digit Span, Processing speed has measured with the Wechsler Adult Intelligence Scale—Digit Symbol, Motor dexterity has measured with the Grooved Pegboard (GP), Functional assessment, as measured by the Functional Assessment of Cancer Therapy-Brain (FACT-Br), all improved in the xenon treated group.

[2] = system: patients with brain metastasis; test: Clinical trial: cognitive function in brain metastasis patients under fractionated radiation, xenon versus air; assay type: in vivo, human; settings: vs air
Method: as §1

[3] = 10-20 liters of 30% xenon every other day during radiation exposure

[Xe] [xenon]
acceleration of tumor growth [1]: No acceleration of tumor growth | cognitive function as measured by HVLT-R Total Recall score (verbal learning and memory test) ([2]; 10-20 liters of 30% xenon every other day during radiation exposure (2 Gy to 100 Gy fractionated over 2-8 weeks), at 3, 8, 12, and 24 weeks): preservation in cognitive function | Cognitive flexibility as measured with the Controlled Oral Word Association (COWA) [2, 3]: improved | Functional assessment, as measured by the Functional Assessment of Cancer Therapy-Brain (FACT-Br) [2, 3]: improved | Motor dexterity measured with the Grooved Pegboard (GP) [2, 3]: improved | Processing speed measured with the Wechsler Adult Intelligence Scale—Digit Symbol [2, 3]: improved | Word Fluency measured with the Controlled Oral Word Association (COWA) [2, 3]: improved | Working memory measured with the Wechsler Adult Intelligence Scale—Digit Span [2, 3]: improved | verbal memory, as measured by the Hopkins Verbal Learning Test-Revised (HVLT-R) [2, 3]: improved
